Results as given in patent publication US20230219904A1 (SYNGENTA CROP PROTECTION AG, priority 2020, published 2023).

Tests used:
Format in all cases: in vivo
Conditions in all cases: evaluated after 13 days
[1] = system: Abutilon theophrasti (ABUTH); assay: Pre-emergence herbicidal glasshouse test (Table B1)
How it was run: (§1)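 Potted plants, glasshouse 24/16° C, 14 h light, 65% RH; spray at 1 d (pre) or 8 d (post) post-sowing; 500 g/h default; acetone/water 50:50 + 0.5% Tween 20. Damage read at 13 d, scored 1–5 (5=80-100%, 1=0-19%).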

[2] = system: Amaranthus retoflexus (AMARE); assay: as above
How it was run: as §1

[3] = system: Echinochloa crus-galh (ECHCG); assay: as above
How it was run: as §1

[4] = system: Ipomoea hederacea (IPOHE); assay: as above
How it was run: as §1

Setaria faberi (SETFA) [5] = assay: as above
How it was run: as §1

[6] = system: Abutilon theophrasti (ABUTH); assay: Post-emergence herbicidal glasshouse test (Table B1)
How it was run: as §1

[7] = system: Amaranthus retoflexus (AMARE); assay: as above
How it was run: as §1

[8] = system: Echinochloa crus-galh (ECHCG); assay: as above
How it was run: as §1

[9] = system: Ipomoea hederacea (IPOHE); assay: as above
How it was run: as §1

Setaria faberi (SETFA) [10] = assay: as above
How it was run: as §1

SMILES	PRE Application ABUTH, percentage damage on five-point scale ([1]; applied at 500 g/h)	PRE Application AMARE, percentage damage on five-point scale ([2]; applied at 500 g/h)	PRE Application ECHCG, percentage damage on five-point scale ([3]; applied at 500 g/h)	PRE Application IPOHE, percentage damage on five-point scale ([4]; applied)	PRE Application SETFA, percentage damage on five-point scale (Setaria faberi (SETFA) [5]; applied at 500 g/h)	POST Application ABUTH, percentage damage on five-point scale ([6]; applied at 500 g/h)	POST Application AMARE, percentage damage on five-point scale ([7]; applied at 500 g/h)	POST Application ECHCG, percentage damage on five-point scale ([8]; applied at 500 g/h)	POST Application IPOHE, percentage damage on five-point scale ([9]; applied at 500 g/h)	POST Application SETFA, percentage damage on five-point scale (Setaria faberi (SETFA) [10]; applied at 500 g/h)	PRE Application ABUTH, percentage damage on five-point scale ([1]; applied at 125 g/ha)	PRE Application AMARE, percentage damage on five-point scale ([2]; applied at 125 g/ha)	PRE Application ECHCG, percentage damage on five-point scale ([3]; applied at 125 g/ha)	PRE Application IPOHE, percentage damage on five-point scale ([4]; applied at 125 g/ha)	PRE Application SETFA, percentage damage on five-point scale (Setaria faberi (SETFA) [5]; applied at 125 g/ha)	POST Application ABUTH, percentage damage on five-point scale ([6]; applied at 125 g/ha)	POST Application AMARE, percentage damage on five-point scale ([7]; applied at 125 g/ha)	POST Application ECHCG, percentage damage on five-point scale ([8]; applied at 125 g/ha)	POST Application IPOHE, percentage damage on five-point scale ([9]; applied at 125 g/ha)	POST Application SETFA, percentage damage on five-point scale (Setaria faberi (SETFA) [10]; applied at 125 g/ha)
CC(F)C(=O)Nc1c(OC(F)(F)F)ccc(C(=O)Nc2nnnn2C)c1Cl (stereo not shown) [Compound 1.009]	5 (5=80-100%)	5 (5=80-100%)	1 (1=0-19%)	4 (4=60-79%)	5 (5=80-100%)	5 (5=80-100%)	5 (5=80-100%)	5 (5=80-100%)	5 (5=80-100%)	5 (5=80-100%)	–	–	–	–	–	–	–	–	–	–
Cc1cc(C(=O)Nc2c(OC(F)(F)F)ccc(C(=O)Nc3nnnn3C)c2Cl)no1 [Compound 1.011]	4 (4=60-79%)	5 (5=80-100%)	1 (1=0-19%)	4 (4=60-79%)	1 (1=0-19%)	5 (5=80-100%)	5 (5=80-100%)	5 (5=80-100%)	5 (5=80-100%)	4 (4=60-79%)	–	–	–	–	–	–	–	–	–	–
CCn1nnnc1NC(=O)c1ccc(OC(F)(F)F)c(NC(C)=O)c1Cl [Compound 1.015]	5 (5=80-100%)	5 (5=80-100%)	4 (4=60-79%)	1 (1=0-19%)	2 (2=20-39%)	5 (5=80-100%)	5 (5=80-100%)	5 (5=80-100%)	5 (5=80-100%)	5 (5=80-100%)	–	–	–	–	–	–	–	–	–	–
CC(F)C(=O)Nc1c(OCC(F)(F)F)ccc(C(=O)Nc2nnnn2C)c1Cl (stereo not shown) [Compound 1.016, 2-chloro-3-(2-fluoropropanoylamino)-N-(1-methyltetrazol-5-yl)-4-(2,2,2-trifluoroethoxy)benzamide]	5 (5=80-100%)	5 (5=80-100%)	5 (5=80-100%)	5 (5=80-100%)	5 (5=80-100%)	5 (5=80-100%)	5 (5=80-100%)	5 (5=80-100%)	5 (5=80-100%)	5 (5=80-100%)	–	–	–	–	–	–	–	–	–	–
Cn1nnnc1NC(=O)c1ccc(OCC(F)(F)F)c(NC(=O)C2CC2)c1Cl [Compound 1.017]	5 (5=80-100%)	5 (5=80-100%)	5 (5=80-100%)	5 (5=80-100%)	5 (5=80-100%)	4 (4=60-79%)	5 (5=80-100%)	5 (5=80-100%)	5 (5=80-100%)	5 (5=80-100%)	–	–	–	–	–	–	–	–	–	–
CC(=O)Nc1c(OCC(F)(F)F)ccc(C(=O)Nc2nnnn2C)c1Cl [Compound 1.018, 3-acetamido-2-chloro-N-(1-methyltetrazol-5-yl)-4-(2,2,2-trifluoroethoxy)benzamide]	4 (4=60-79%)	5 (5=80-100%)	3 (3=40-59%)	3 (3=40-59%)	3 (3=40-59%)	5 (5=80-100%)	5 (5=80-100%)	5 (5=80-100%)	4 (4=60-79%)	5 (5=80-100%)	–	–	–	–	–	–	–	–	–	–
Cn1nnnc1NC(=O)c1ccc(OC(F)F)c(NC(=O)C2CC2)c1Cl [Compound 1.019]	–	–	–	–	–	–	–	–	–	–	5 (5=80-100%)	5 (5=80-100%)	5 (5=80-100%)	5 (5=80-100%)	5 (5=80-100%)	5 (5=80-100%)	5 (5=80-100%)	5 (5=80-100%)	5 (5=80-100%)	5 (5=80-100%)
CC(C)C(=O)Nc1c(OC(F)F)ccc(C(=O)Nc2nnnn2C)c1Cl [Compound 1.020]	–	–	–	–	–	–	–	–	–	–	5 (5=80-100%)	5 (5=80-100%)	5 (5=80-100%)	5 (5=80-100%)	5 (5=80-100%)	5 (5=80-100%)	5 (5=80-100%)	5 (5=80-100%)	5 (5=80-100%)	5 (5=80-100%)
CCC(=O)N(CC)c1c(OC(F)F)ccc(C(=O)Nc2nnnn2C)c1Cl [Compound 1.021]	–	–	–	–	–	–	–	–	–	–	5 (5=80-100%)	3 (3=40-59%)	3 (3=40-59%)	3 (3=40-59%)	3 (3=40-59%)	4 (4=60-79%)	3 (3=40-59%)	4 (4=60-79%)	3 (3=40-59%)	4 (4=60-79%)
CCC(=O)Nc1c(OC(F)F)ccc(C(=O)Nc2nnnn2C)c1Cl [Compound 1.022]	–	–	–	–	–	–	–	–	–	–	5 (5=80-100%)	5 (5=80-100%)	5 (5=80-100%)	4 (4=60-79%)	5 (5=80-100%)	5 (5=80-100%)	5 (5=80-100%)	5 (5=80-100%)	4 (4=60-79%)	5 (5=80-100%)
Cn1nnnc1NC(=O)c1ccc(OC(F)F)c(N2CCCCC2=O)c1Cl [Compound 1.023]	–	–	–	–	–	–	–	–	–	–	5 (5=80-100%)	5 (5=80-100%)	5 (5=80-100%)	2 (2=20-39%)	5 (5=80-100%)	5 (5=80-100%)	5 (5=80-100%)	5 (5=80-100%)	5 (5=80-100%)	5 (5=80-100%)
CCC(=O)N(C)c1c(OC(F)F)ccc(C(=O)Nc2nnnn2C)c1Cl [Compound 1.024]	–	–	–	–	–	–	–	–	–	–	5 (5=80-100%)	5 (5=80-100%)	4 (4=60-79%)	4 (4=60-79%)	4 (4=60-79%)	4 (4=60-79%)	3 (3=40-59%)	4 (4=60-79%)	4 (4=60-79%)	4 (4=60-79%)
CC(F)C(=O)Nc1c(OC(F)F)ccc(C(=O)Nc2nnnn2C)c1Cl (stereo not shown) [Compound 1.025]	–	–	–	–	–	–	–	–	–	–	5 (5=80-100%)	5 (5=80-100%)	3 (3=40-59%)	4 (4=60-79%)	3 (3=40-59%)	4 (4=60-79%)	5 (5=80-100%)	5 (5=80-100%)	2 (2=20-39%)	4 (4=60-79%)
